The record followed here is patent US11746116B2, “Antibiotic resistance breakers” (KING'S COLLEGE LONDON, priority 2017, dated 2023).

Converted amounts (≈) assume the structure as drawn. “And” between values parts separate entries of the source, which are not always exact repeats. Equal values may be shown once. Read-outs that look alike come from different tables or passages of the source.

In one series the test system is EMRSA15. The series can be described thus: MIC, microdilution broth method. It is filed as cell-based, Staphylococcus aureus.
For the next series, the system named is VSE775. The series is described as follows: MIC, microdilution broth method. Further details: MIC, VSE775: unit not given beside the values. It is filed as cell-based, Enterococcus faecalis. (In broth dilution the organism is exposed to a series of concentrations in liquid medium.)
For a further series, the system named is KP13368. The series can be described thus: MIC, microdilution broth method. Type of series: cell-based.
A further series deals with PA01. The series is described as follows: MIC, microdilution broth method. Type of series: cell-based, Pseudomonas aeruginosa.
For a further series, the system named is Ab17978. The series is described as follows: MIC, microdilution broth method. It is filed as cell-based.
A further series has as its system EMRSA16. The series is described as follows: MIC, microdilution broth method. Type of series: cell-based, Staphylococcus aureus. Particulars: for MIC, EMRSA16: in µg/mL.
In another series the test system is VRE12204. The series can be described thus: MIC, microdilution broth method. Type of series: cell-based, Enterococcus faecium. The conditions noted are these: ESKAPE panel, Gram-positive; in µg/mL.
The target of series [1] is Safetyscreen44 off target panel (Homo sapiens, UniProt Q12809). The series can be described thus: Safetyscreen44, potential off target toxicity (Table 27).
Sequence of Safetyscreen44 off target panel (Q12809 whole entry): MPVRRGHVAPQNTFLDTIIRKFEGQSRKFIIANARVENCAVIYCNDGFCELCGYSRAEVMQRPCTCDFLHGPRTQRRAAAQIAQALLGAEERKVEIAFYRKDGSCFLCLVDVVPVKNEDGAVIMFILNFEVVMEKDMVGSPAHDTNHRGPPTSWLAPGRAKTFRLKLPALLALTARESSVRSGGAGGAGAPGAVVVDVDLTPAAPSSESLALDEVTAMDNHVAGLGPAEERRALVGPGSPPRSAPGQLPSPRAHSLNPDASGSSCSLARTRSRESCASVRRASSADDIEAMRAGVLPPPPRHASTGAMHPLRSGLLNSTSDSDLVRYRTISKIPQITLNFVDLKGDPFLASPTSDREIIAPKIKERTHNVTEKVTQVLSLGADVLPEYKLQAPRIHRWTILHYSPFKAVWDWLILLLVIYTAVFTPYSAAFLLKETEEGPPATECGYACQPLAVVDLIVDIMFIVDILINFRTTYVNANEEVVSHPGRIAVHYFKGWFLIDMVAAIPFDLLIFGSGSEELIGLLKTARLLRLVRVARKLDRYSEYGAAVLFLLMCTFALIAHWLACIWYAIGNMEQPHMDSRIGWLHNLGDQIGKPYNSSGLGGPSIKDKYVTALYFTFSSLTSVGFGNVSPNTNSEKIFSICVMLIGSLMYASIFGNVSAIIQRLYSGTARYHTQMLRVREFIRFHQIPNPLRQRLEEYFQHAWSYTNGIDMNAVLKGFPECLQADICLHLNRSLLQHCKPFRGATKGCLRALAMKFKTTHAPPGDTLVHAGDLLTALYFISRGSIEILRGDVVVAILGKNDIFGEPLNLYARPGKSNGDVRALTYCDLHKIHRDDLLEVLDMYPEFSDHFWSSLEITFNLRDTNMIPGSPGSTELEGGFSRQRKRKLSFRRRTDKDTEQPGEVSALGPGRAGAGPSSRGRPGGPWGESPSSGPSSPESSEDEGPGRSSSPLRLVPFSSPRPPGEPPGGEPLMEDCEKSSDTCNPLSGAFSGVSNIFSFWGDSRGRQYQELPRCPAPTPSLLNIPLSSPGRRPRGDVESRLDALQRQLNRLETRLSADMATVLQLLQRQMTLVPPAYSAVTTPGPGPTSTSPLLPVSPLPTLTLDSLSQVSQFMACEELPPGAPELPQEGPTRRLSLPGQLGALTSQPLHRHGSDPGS
A short description of the next series: in vivo. The conditions noted are these: male, CD-1 (ICR), mouse, iv, 5 mg/kg.
A short description of series [2]: Single dose pharmacokinetics study, intravenous route. Particulars: 5 mg/kg.
In another series the target is CYP2C19 (Homo sapiens, UniProt P33261). The series can be described thus: in vitro. Particulars: microsomes, % inhibition, CYP2C19 inhibition (HLM, omeprazole substrate).
Sequence of CYP2C19 (P33261 whole entry): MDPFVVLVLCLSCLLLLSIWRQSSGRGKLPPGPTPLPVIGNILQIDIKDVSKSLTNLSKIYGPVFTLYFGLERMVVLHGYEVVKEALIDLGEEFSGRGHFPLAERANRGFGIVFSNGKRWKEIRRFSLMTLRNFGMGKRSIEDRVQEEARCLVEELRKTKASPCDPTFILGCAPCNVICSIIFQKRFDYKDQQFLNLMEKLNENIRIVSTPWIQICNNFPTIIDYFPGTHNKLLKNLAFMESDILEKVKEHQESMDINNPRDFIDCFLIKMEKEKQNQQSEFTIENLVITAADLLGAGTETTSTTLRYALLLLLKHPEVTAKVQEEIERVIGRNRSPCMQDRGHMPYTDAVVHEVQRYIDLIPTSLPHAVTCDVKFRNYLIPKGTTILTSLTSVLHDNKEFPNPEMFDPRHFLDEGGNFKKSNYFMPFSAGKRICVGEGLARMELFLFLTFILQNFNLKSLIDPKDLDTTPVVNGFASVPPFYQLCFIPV
For the next series, the system named is CYP3A. The series is described as follows: in vitro. The conditions noted are these: human, microsomes, % inhibition.
In a further series the target is CYP2B6 (Homo sapiens, UniProt P20813). The series is described as follows: in vitro. Particulars: microsomes, % inhibition, CYP2B6 inhibition (HLM, bupropion substrate).
Sequence of CYP2B6 (P20813 whole entry): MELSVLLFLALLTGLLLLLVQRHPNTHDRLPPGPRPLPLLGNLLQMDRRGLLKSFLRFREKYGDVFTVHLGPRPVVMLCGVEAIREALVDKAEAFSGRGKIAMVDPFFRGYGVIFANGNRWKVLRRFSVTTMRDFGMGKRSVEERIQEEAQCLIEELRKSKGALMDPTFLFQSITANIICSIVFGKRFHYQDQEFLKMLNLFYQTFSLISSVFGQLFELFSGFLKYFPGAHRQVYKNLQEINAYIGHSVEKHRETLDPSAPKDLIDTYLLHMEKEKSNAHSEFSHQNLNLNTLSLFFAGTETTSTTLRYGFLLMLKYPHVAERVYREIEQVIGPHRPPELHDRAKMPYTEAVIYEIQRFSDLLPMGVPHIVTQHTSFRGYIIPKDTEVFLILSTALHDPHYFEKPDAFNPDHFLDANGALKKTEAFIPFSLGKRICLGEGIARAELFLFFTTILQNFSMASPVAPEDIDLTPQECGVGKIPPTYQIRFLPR
The next series deals with CYP1A (printed CYPiA). The series is described as follows: in vitro. Particulars: human, microsomes, % inhibition, CYPiA inhibition (HLM, phenacetin substrate).
The target in another series is CYP2C9 (Homo sapiens, UniProt P11712). The series is described as follows: in vitro. The conditions noted are these: microsomes, % inhibition, CYP2C9 inhibition (HLM, diclofenac substrate).
Sequence of CYP2C9 (P11712 whole entry): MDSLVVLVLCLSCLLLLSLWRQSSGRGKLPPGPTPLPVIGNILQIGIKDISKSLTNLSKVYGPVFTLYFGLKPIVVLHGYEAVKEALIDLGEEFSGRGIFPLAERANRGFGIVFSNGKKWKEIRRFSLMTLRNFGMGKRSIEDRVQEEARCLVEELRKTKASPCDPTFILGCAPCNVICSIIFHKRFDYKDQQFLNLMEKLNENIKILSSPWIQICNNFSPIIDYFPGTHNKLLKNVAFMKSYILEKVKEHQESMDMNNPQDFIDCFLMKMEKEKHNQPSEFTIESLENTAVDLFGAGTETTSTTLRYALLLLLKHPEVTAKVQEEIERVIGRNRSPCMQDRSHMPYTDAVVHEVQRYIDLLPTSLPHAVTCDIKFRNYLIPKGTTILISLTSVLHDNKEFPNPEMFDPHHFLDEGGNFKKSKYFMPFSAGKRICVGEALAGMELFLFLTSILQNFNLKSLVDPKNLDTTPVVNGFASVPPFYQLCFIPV
The target of another series is CYP2C8 (Homo sapiens, UniProt P10632). The series can be described thus: in vitro. Particulars: microsomes, % inhibition, CYP2C8 inhibition (HLM, amodiaquine substrate).
Sequence of CYP2C8 (P10632 whole entry): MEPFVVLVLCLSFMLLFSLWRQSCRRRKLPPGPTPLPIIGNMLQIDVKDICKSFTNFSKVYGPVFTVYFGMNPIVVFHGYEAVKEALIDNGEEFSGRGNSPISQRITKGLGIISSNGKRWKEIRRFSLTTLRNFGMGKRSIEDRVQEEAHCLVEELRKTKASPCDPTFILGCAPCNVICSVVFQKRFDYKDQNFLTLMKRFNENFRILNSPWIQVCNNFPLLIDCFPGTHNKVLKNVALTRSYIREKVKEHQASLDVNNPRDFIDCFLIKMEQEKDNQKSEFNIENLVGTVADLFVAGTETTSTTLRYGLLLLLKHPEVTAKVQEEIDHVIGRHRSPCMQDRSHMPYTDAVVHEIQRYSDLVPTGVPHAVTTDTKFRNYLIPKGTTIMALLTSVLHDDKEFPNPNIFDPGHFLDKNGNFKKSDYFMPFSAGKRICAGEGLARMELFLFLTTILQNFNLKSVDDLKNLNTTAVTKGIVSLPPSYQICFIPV
For another series, the target named is CYP2D6 (Homo sapiens, UniProt P10635). The series is described as follows: in vitro. The conditions noted are these: microsomes, % inhibition, CYP2D6 inhibition (HLM, dextromethorphan substrate).
Sequence of CYP2D6 (P10635 whole entry): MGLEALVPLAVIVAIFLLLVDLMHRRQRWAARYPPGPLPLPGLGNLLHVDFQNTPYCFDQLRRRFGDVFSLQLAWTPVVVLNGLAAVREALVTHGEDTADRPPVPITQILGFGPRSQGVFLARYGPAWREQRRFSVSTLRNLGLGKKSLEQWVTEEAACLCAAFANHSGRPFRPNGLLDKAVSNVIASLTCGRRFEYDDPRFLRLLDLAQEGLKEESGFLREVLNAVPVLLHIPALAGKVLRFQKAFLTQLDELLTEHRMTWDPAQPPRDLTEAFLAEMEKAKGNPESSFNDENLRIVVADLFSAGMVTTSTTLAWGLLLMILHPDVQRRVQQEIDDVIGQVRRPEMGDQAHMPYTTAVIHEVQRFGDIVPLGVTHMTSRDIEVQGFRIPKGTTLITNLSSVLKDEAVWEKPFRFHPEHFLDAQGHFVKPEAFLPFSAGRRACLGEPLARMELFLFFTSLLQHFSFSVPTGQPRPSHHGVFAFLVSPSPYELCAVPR
For series [3] the following is noted: mouse, in vivo.
The conditions of series [4]: male, CD-1 (ICR), mouse, in vivo, iv, 5 mg/kg.
Series [5] is described as follows: Single dose pharmacokinetics study, oral route. The conditions noted are these: 20 mg/kg.
Where [6] appears, read: ESKAPE panel, Gram-negative, in µg/mL.
[7] abbreviates: Male CD1 mouse, blood, Composite Mean.
The mark [8] stands for this setting: male, CD-1 (ICR), mouse, in vivo.
Where [9] appears, read: male, CD-1 (ICR), mouse, in vivo, po.

As for `Cc1cc(C)nc(N[C@@H]2CCN(c3c(F)cc4c(=O)c(C(=O)O)cn5c4c3OC[C@@H]5C)C2)n1` [KSN-BL7, (S)-10-((R)-3-((4,6-dimethylpyrimidin-2-yl)amino)pyrrolidin-1-yl)-9-fluoro-3-methyl-7-oxo-2,3-dihydro-7H-[1,4]oxazino[2,3,4-ij]quinoline-6-carboxylic acid], the “MIC, EMRSA15” value is reported as 0.125-0.25 in the series with EMRSA15 (EMRSA15 (Table 16, role of the terminal pyrimidine ring), in µg/mL) and 0.125- in the series with EMRSA15 (ESKAPE panel, Gram-positive). For the same compound, the MIC (in general, the lowest concentration that inhibits growth of the organism) in the series on EMRSA15 (Staphylococcus aureus) is 0.125 µg/mL (≈ 0.276 µM); in the series with VSE775 (Enterococcus faecalis), 0.06 µg/mL (≈ 0.132 µM); against KP13368 (Klebsiella pneumoniae) it was 16 µg/mL (≈ 35.3 µM); against PA01 (Pseudomonas aeruginosa) it was 8 µg/mL (≈ 17.6 µM); in the series on Ab17978 (Acinetobacter baumannii), at most 0.125 µg/mL; in the series on EMRSA16 (Staphylococcus aureus) it was 0.25 µg/mL (≈ 0.551 µM). Moreover, in the series on VSE775 (ESKAPE panel, Gram-positive), the “MIC, VSE775” value came out at 0.0625. In the series on KP13368 (ESKAPE panel, Gram-negative), this compound had an MIC, KP13368 of 16 µg/mL (≈ 35.3 µM). Also, the “MIC, PA01” value against PA01 (setting [6]) stood at 8. In the series on Ab17978 (setting [6]), the “MIC, Ab17978” value is reported as at most 0.125. For the same compound, the “MIC, EMRSA16” value is 0.25-0.5 in the series on EMRSA16 (EMRSA16 (Table 16, role of the terminal pyrimidine ring)) and 0.25 against EMRSA16 (ESKAPE panel, Gram-positive). Moreover, the “MIC, VRE12204” value with VRE12204 came to 1.

As for `C[C@H]1COc2c(N3CC[C@@H](Nc4ncccn4)C3)c(F)cc3c(=O)c(C(=O)O)cn1c23` [KSN-82-L22], the “% inhibition, Potassium Channel hERG (human)-[3H] Dofetilide” value in series [1] was −0.2461%. For the same compound, the Vd (as a rule, the apparent volume that relates the amount in the body to the concentration in plasma or blood) in “in vivo” fell in the range of 1 to 4 L/kg. In [2] (setting [7]), the “Blood CL” value was found to be 12.5 mL/min/kg. For the same compound, the Clast in series [2] (setting [7]) was determined as 286 ng/mL; in series [5] (PO, Male CD1 mouse, blood, Mean) it was 628 ng/mL. In addition, the AUC (commonly concentration integrated over time) in series [2] (setting [8]) was 6420 ng·h/mL and 15.1 µM·h; in series [5] (setting [9]), 8230 ng·h/mL and 19.3 µM·h. Besides, the figures for the AUC(0-inf) in series [2] (setting [8]) and in [5] (setting [9]) were 15.7 µM·h and 31 µM·h, respectively. Moreover, the Cmax (usually the maximum level reached in the sampled fluid or tissue) was 9390 ng/mL and 22.1 µM in series [2] (setting [8]); 4.01 µM and 2960 ng/mL in series [5] (setting [9]). Further, in series [2] (setting [8]), the MRT – broadly, the average time that molecules of a dose stay in the body – was determined as 1.8 h. For the same compound, in series [2] (setting [8]), the half-life (in general, the time needed for the level to fall by half in the phase considered) is 0.6 h. Moreover, the inhibition (usually the drop in the measured response relative to a control, in per cent) at 10 µM is 0.632% against CYP2C19; 25.2% in the series on CYP3A (CYP3A inhibition (HLM, midazolam substrate)); 6.52% in the series with CYP3A (CYP3A inhibition (HLM, testosterone substrate)); -1.32% against CYP2B6; 9.56% with CYP1A (printed CYPiA); 12.8% against CYP2C9. The inhibition at 10 µM against CYP2C8 was 3.05%; against CYP2D6 it was 0%. For the same compound, in series [3] (male, CD-1 (ICR)), the “Bioavailability Using AUCinf” value is listed as 49-3%. Further, the “Bioavailability Using AUCo.t” value in series [3] (male, CD-1 (ICR)) turned out to be 32.0%. The AUGinf in series [3] (male, CD-1 (ICR), po, 20 mg/kg) is 13203 ng·h/mL; in series [4], 6691 ng·h/mL. Moreover, in [3] (po, 20 mg/kg), the T½ was 5-1 h. Further, in [4], the “Liver Blood Flow” value is recorded as 10.4%. Moreover, in series [5] (setting [9]), the Tmax – broadly, the time from dosing to the highest level – came out at 1 h.
